Where “and” joins values, the source holds several entries; their conditions need not be identical. Equal entries are not always repeated.
Experiments:
Bcl-2 = Bcl-2 gene expression in HepG-2 cells; type: cell-based, human
Protocol: (§1) All synthesized compounds were tested at their cytotoxic concentrations in HepG-2 cells for analysis of gene expression levels of apoptotic markers caspase-3, caspase-9, TNF-α, and IL-6 proteins, and only two active compounds were tested for BAX and Bcl-2 proteins.
(§2) through Flow cytometric analysis.
(§3) Pellets were collected again and incubated with
(§4) Total RNA from vehicle-treated
(§5) (Thermo Scientific, USA).
(§6) All experiments were performed in […]

BAX = BAX gene expression in HepG-2 cells; type: cell-based, human
Protocol: as §1, §2, §3, §4, §5, §6

HepG-2 cells = assay: Cell cycle analysis (PI staining, flow cytometry); type: cell-based, human
Protocol: In order to cause cytotoxicity, anticancer medicines must stop cell division at specific checkpoints, which are discrete stages of the cell cycle.
Propidium iodide (PI) staining and flow cytometry analysis[74,75] were used to analyze the cell cycle for derivatives 8a and 9a, as illustrated in the SI.
as §2, §3, §4, §5, §6

caspase-3 = assay: Caspase-3 expression level in HepG-2 cells; type: cell-based, human; settings: for Caspase-3 ± SE: HepG-2, at IC50 concentrations, control 0.460
Protocol: as §1, §2, §3, §4, §5, §6

MCF-7 = assay: MTT anti-proliferative assay, MCF-7; type: cell-based, human; settings: Homo sapiens, MCF7
caspase-9 = assay: Caspase-9 expression level in HepG-2 cells; type: cell-based, human; settings: for Caspase-9 ± SE: HepG-2, at IC50 concentrations, control 11.01
Protocol: as §1, §2, §3, §4, §5, §6

TNF-alpha = TNF-alpha level in HepG-2 cells; type: cell-based, human; settings: control 43.48
Protocol: as §1, §2, §3, §4, §5, §6

K-562 = assay: MTT anti-proliferative assay, K-562; type: cell-based, human; settings: Homo sapiens, K562
IL-6R = IL-6R level in HepG-2 cells; type: cell-based, human
Protocol: as §1, §2, §3, §4, §5, §6

EGFR = EGFR (Homo sapiens, UniProt P00533); assay: EGFR kinase inhibition assay (ELISA kit)
BAX/Bcl-2 = BAX/Bcl-2 ratio in HepG-2 cells; type: cell-based, human; settings: control 0.1260
Protocol: as §1, §2, §3, §4, §5, §6

VEGFR-2 = VEGFR-2 (Homo sapiens, UniProt P35968); assay: In vitro VEGFR-2 inhibitory assay (ELISA kit); settings: VEGFR-2 kinase
HepG-2 = assay: MTT anti-proliferative assay, HepG-2; type: cell-based, human; settings: Homo sapiens, HepG2

Sequence of VEGFR-2 (P35968 20-1356): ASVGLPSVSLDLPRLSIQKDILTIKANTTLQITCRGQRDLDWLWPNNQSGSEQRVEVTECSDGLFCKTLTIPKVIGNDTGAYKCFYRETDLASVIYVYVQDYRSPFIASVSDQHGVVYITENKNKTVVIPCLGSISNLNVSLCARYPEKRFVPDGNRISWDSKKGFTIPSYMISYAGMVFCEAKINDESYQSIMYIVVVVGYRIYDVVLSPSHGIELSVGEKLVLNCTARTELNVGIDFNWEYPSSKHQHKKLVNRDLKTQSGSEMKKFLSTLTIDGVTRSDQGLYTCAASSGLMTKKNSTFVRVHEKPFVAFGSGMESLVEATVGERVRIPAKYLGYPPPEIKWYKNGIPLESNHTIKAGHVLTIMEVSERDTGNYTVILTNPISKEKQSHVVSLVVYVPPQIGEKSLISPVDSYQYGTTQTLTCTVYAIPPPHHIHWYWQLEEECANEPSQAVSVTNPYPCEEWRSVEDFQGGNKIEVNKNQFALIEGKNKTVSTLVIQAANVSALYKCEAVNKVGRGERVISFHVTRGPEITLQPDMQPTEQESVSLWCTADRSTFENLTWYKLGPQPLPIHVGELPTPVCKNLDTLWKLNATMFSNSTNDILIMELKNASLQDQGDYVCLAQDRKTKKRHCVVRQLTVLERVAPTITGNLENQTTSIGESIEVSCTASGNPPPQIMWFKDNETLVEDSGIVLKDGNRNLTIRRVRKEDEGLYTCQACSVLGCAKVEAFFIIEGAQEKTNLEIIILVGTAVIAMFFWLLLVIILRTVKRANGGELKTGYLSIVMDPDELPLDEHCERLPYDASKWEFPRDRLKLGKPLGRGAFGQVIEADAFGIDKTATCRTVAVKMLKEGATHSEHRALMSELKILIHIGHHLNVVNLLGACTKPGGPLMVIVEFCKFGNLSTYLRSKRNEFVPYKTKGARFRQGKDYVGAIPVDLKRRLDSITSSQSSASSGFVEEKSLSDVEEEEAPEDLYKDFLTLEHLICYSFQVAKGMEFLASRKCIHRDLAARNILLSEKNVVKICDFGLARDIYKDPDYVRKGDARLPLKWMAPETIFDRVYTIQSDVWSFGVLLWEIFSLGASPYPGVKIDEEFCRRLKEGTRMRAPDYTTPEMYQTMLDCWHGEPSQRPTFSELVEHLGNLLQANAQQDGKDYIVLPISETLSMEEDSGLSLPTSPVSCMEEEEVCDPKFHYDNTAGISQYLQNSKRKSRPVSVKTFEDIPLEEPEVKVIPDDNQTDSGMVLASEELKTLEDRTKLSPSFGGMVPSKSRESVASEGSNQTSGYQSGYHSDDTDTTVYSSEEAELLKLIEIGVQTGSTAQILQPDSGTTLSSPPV
Sequence of EGFR (P00533 25-1210): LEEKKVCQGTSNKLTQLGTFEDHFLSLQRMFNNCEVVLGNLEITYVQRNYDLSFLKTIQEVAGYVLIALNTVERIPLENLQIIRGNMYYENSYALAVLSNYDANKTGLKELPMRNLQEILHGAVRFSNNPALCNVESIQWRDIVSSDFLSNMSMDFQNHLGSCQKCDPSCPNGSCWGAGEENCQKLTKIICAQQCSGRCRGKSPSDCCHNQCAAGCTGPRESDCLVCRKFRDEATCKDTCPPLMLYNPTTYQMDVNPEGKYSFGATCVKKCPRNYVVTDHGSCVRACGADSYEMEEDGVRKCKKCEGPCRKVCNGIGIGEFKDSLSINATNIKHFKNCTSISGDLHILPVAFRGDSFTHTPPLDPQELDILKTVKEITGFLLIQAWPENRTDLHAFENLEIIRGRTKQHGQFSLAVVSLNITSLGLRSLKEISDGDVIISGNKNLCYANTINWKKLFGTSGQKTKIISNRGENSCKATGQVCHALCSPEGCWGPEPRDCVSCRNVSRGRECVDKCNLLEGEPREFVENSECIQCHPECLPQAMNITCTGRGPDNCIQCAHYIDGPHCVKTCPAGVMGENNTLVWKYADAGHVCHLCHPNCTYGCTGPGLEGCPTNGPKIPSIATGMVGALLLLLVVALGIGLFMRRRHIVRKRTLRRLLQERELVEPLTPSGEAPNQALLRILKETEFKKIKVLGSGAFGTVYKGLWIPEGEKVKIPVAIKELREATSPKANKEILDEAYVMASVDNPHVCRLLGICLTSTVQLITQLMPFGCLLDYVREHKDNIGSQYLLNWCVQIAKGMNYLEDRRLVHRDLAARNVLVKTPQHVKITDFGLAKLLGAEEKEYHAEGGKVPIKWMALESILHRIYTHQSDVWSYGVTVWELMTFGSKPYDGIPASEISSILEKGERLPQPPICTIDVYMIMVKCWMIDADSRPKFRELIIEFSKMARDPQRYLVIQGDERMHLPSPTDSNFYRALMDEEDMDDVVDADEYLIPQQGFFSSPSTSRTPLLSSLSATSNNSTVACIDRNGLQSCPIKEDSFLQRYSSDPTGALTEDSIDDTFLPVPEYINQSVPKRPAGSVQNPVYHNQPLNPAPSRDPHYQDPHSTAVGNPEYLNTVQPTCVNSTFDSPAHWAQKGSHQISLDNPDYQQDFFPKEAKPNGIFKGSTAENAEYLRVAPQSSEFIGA

SMILES: O=C(Cn1cnc2cc(Cl)ccc2c1=O)Nc1ccccc1 [8a, 2-(7-Chloro-4-oxoquinazolin-3(4H)-yl)-N-phenylacetamide]
- fold reduction in Bcl-2 expression level (Bcl-2; HepG-2, vs control): 3.75 fold
- Gene expression (fold change) Bcl-2 (Bcl-2; HepG-2, control 3.4983): 0.93 fold change and 0.9352 ± 0.09 fold change
- fold increase in BAX expression level (BAX; HepG-2, vs control): 3.8 fold
- BAX expression level (BAX; HepG-2, control 0.44): 1.67 fold change
- Gene expression (fold change) BAX (BAX; HepG-2, control 0.4448): 1.6792 ± 0.74 fold change
- % Sub-G1 (HepG-2 cells; HepG-2, cytotoxic concentration, 24 h, control 68.12): 96.3% and 96.13%
- % S (HepG-2 cells; HepG-2, control 2.23): 0.52%
- % G2/M (HepG-2 cells; HepG-2, control 6.52): 0.16%
- % G1 (HepG-2 cells; HepG-2, control 23.14): 3.19%
- Caspase-3 ± SE (caspase-3): 1.52 ± 0.017 ng/mL
- Caspase-3 ± SE (caspase-3; listed as R2): 1.52 ng/mL
- caspase-3 expression level, fold increase (caspase-3; HepG-2, vs control cells): 3.30 fold
- viability at 0.195 µmol (MCF-7; MCF-7, 0.195 umol): 93.5%
- cytotoxicity at 0.195 µmol (MCF-7; MCF-7, 0.195 umol, read-out: Toxicity %): 6.51%
- viability at 0.391 µmol (MCF-7; MCF-7, 0.391 umol): 67%
- cytotoxicity at 0.391 µmol (MCF-7; MCF-7, 0.391 umol, read-out: Toxicity %): 33%
- viability at 0.781 µmol (MCF-7; MCF-7, 0.781 umol): 45.2%
- cytotoxicity at 0.781 µmol (MCF-7; MCF-7, 0.781 umol, read-out: Toxicity %): 54.8%
- viability at 1.563 µmol (MCF-7; MCF-7, 1.563 umol): 28.5%
- cytotoxicity at 1.563 µmol (MCF-7; MCF-7, 1.563 umol, read-out: Toxicity %): 71.5%
- viability at 3.125 µmol (MCF-7; MCF-7, 3.125 umol): 17.8%
- cytotoxicity at 3.125 µmol (MCF-7; MCF-7, 3.125 umol, read-out: Toxicity %): 82.2%
- viability at 6.25 µmol (MCF-7; MCF-7, 6.25 umol): 11.4%
- cytotoxicity at 6.25 µmol (MCF-7; MCF-7, 6.25 umol, read-out: Toxicity %): 88.6%
- viability at 12.5 µmol (MCF-7; MCF-7, 12.5 umol): 8.31%
- cytotoxicity at 12.5 µmol (MCF-7; MCF-7, 12.5 umol, read-out: Toxicity %): 91.7%
- viability at 25 µmol (MCF-7; MCF-7, 25 umol): 7.26%
- cytotoxicity at 25 µmol (MCF-7; MCF-7, 25 umol, read-out: Toxicity %): 92.7%
- IC50 (MCF-7; MTT, MCF-7, read-out: Cytotoxicity against cancer cells IC50 MCF-7): 695.5 ± 5.1 nM
- Caspase-9 ± SE (caspase-9): 74.01 ± 3.92 ng/L
- Caspase-9 ± SE (caspase-9; listed as R2): 74.01 ng/L
- caspase-9 expression level, fold increase (caspase-9; HepG-2, vs control cells): 6.72 fold
- TNF-alpha ±SE (TNF-alpha; HepG-2, at IC50 concentrations): 14.37 ± 0.45 ng/L
- TNF-alpha ±SE (TNF-alpha; raw data, HepG2): 23.6 ng/L
- viability at 0.195 µmol (K-562; K-562, 0.195 umol): 46.6%
- cytotoxicity at 0.195 µmol (K-562; K-562, 0.195 umol, read-out: Toxicity %): 53.4%
- viability at 0.391 µmol (K-562; K-562, 0.391 umol): 29.3%
- cytotoxicity at 0.391 µmol (K-562; K-562, 0.391 umol, read-out: Toxicity %): 70.7%
- viability at 0.781 µmol (K-562; K-562, 0.781 umol): 22%
- cytotoxicity at 0.781 µmol (K-562; K-562, 0.781 umol, read-out: Toxicity %): 78%
- viability at 1.563 µmol (K-562; K-562, 1.563 umol): 12.7%
- cytotoxicity at 1.563 µmol (K-562; K-562, 1.563 umol, read-out: Toxicity %): 87.3%
- viability at 3.125 µmol (K-562; K-562, 3.125 umol): 8.29%
- cytotoxicity at 3.125 µmol (K-562; K-562, 3.125 umol, read-out: Toxicity %): 91.7%
- viability at 6.25 µmol (K-562; K-562, 6.25 umol): 7.18%
- cytotoxicity at 6.25 µmol (K-562; K-562, 6.25 umol, read-out: Toxicity %): 92.8%
- viability at 12.5 µmol (K-562; K-562, 12.5 umol): 6.03%
- cytotoxicity at 12.5 µmol (K-562; K-562, 12.5 umol, read-out: Toxicity %): 94%
- viability at 25 µmol (K-562; K-562, 25 umol): 5.54%
- cytotoxicity at 25 µmol (K-562; K-562, 25 umol, read-out: Toxicity %): 94.5%
- IC50 (K-562; MTT, K-562, read-out: Cytotoxicity against cancer cells IC50 K-562): 188.4 ± 1.7 nM
- IL-6R ± SE (IL-6R; HepG-2, at IC50 concentrations, control 44.10): 19.54 ± 1.62 ng/L
- IL-6R protein level (IL-6R; HepG-2, control 44.10%): 19.54 ng/L
- IL-6 ±SE (IL-6R; raw data, HepG2, control 44.10): 26.0 ng/L
- Activity % (EGFR; HepG2): 16.790%
- Inhibition % (EGFR; HepG2): 83.210%
- Activity % (EGFR; K-562): 33.902%
- Inhibition % (EGFR; K-562): 66.098%
- Activity % (EGFR; MCF7): 20.242%
- Inhibition % (EGFR; MCF7): 79.758%
- Gene expression (fold change) BAX/Bcl-2 ratio (BAX/Bcl-2): 1.77 and 1.7777 ± 0.11
- Activity % (VEGFR-2; HepG2): 25.136%
- Inhibition % (VEGFR-2; HepG2): 74.864%
- Activity % (VEGFR-2; K-562): 37.495%
- Inhibition % (VEGFR-2; K-562): 62.505%
- Activity % (VEGFR-2; MCF7): 32.377%
- Inhibition % (VEGFR-2; MCF7): 67.623%
- viability at 0.195 µg/mL (HepG-2; HepG-2, 0.195 ug/ml): 45.9%
- cytotoxicity at 0.195 µg/mL (HepG-2; HepG-2, 0.195 ug/ml, read-out: Toxicity %): 54.1%
- viability at 0.391 µg/mL (HepG-2; HepG-2, 0.391 ug/ml): 26.4%
- cytotoxicity at 0.391 µg/mL (HepG-2; HepG-2, 0.391 ug/ml, read-out: Toxicity %): 73.6%
- viability at 0.781 µg/mL (HepG-2; HepG-2, 0.781 ug/ml): 16.7%
- cytotoxicity at 0.781 µg/mL (HepG-2; HepG-2, 0.781 ug/ml, read-out: Toxicity %): 83.3%
- viability at 1.563 µg/mL (HepG-2; HepG-2, 1.563 ug/ml): 11.8%
- cytotoxicity at 1.563 µg/mL (HepG-2; HepG-2, 1.563 ug/ml, read-out: Toxicity %): 88.2%
- viability at 3.125 µg/mL (HepG-2; HepG-2, 3.125 ug/ml): 8.68%
- cytotoxicity at 3.125 µg/mL (HepG-2; HepG-2, 3.125 ug/ml, read-out: Toxicity %): 91.3%
- viability at 6.25 µg/mL (HepG-2; HepG-2, 6.25 ug/ml): 7.88%
- cytotoxicity at 6.25 µg/mL (HepG-2; HepG-2, 6.25 ug/ml, read-out: Toxicity %): 92.1%
- viability at 12.5 µg/mL (HepG-2; HepG-2, 12.5 ug/ml): 6.74%
- cytotoxicity at 12.5 µg/mL (HepG-2; HepG-2, 12.5 ug/ml, read-out: Toxicity %): 93.3%
- viability at 25 µg/mL (HepG-2; HepG-2, 25 ug/ml): 5.9%
- cytotoxicity at 25 µg/mL (HepG-2; HepG-2, 25 ug/ml, read-out: Toxicity %): 94.1%
- IC50 (HepG-2; MTT, HepG-2, read-out: Cytotoxicity against cancer cells IC50 HepG-2): 187.1 ± 1.8 nM

From paper PMC12377202, “Design, synthesis, and cytotoxic evaluation of quinazoline-based derivatives as VEGER-2 inhibitors: comparative study against EGFR kinase activity, induction of apoptosis, and molecular docking study” (RSC Advances, 2025)
